Measured values from EP4737454A1, “GLP-1 RECEPTOR AGONIST, AND PREPARATION METHOD THEREFOR AND USE THEREOF” (Wayne Biotechnology Co., Ltd., priority 2023, dated 2025).

Target: Human GLP-1R (Homo sapiens, UniProt P43220)
Assay: cAMP level determination in human GLP-1R stably transfected HEK293T cells (HTRF cAMP kit)
Format: cell-based
Conditions: 37°C 30 min
Procedure: Human GLP-1R HEK293T stably transfected cells were digested with trypsin, terminated with DMEM total (without p/s), centrifuged and washed twice with 1X Stimulation buffer, then resuspended in 1X stimulation buffer and counted. The cells were then prepared as a 1 Million/mL cell suspension in stimulation buffer. Compound powder was first prepared as a 10 mM stock solution in DMSO, then diluted to 2 mM with DMSO, and further prepared as 2X compound in 1X stimulation buffer (Cisbio kit buffer with freshly added IBMX at a final concentration of 0.5 mM). The top dose final concentration was 2000 nM, with a final DMSO concentration of 0.2%, diluted in a 1:3 gradient for 11 gradients.
According to the layout, 5 µl of compound was added to each well; Min wells contained 100 nM GLP-1, and Max wells contained 0.2% DMSO in 1X stimulation buffer. 5 µl of cell suspension was added to each well, centrifuged at 300 rpm at room temperature for 1 min, then incubated at 37°C for 30 min. 2X cAMP standards were prepared in 1X Stimulation buffer, with a top final concentration of 2.8 µM, diluted in a 1:3 gradient for 12 doses. According to the layout, 10 µl was added to each well. Finally, d2 and antibody were diluted 20-fold in 1X Detection buffer (Cisbio kit buffer), and 5 µl of each was added to each well according to the layout. After centrifugation at 300 rpm at room temperature for 1 min, the plate was incubated at room temperature for 2 hr.
Stimulation% was calculated based on Min and Max readings (665nm/615nm ratio) using the formula: 100*(ratio Max well - ratio test well)/(ratio Max well - ratio Min well). The cAMP concentration in each test well was derived from the cAMP standard curve, and the data was analyzed using GraphPad Prism 9 to plot four-parameter fit curves and calculate EC50 values using the formula: Y=Bottom + (Top-Bottom)/(1+10^((LogEC50-X)*HillSlope)). Table 1: cAMP Level Determination in Human GLP-1R Stably Transfected HEK293T Cells

Sequence of Human GLP-1R (P43220 24-463): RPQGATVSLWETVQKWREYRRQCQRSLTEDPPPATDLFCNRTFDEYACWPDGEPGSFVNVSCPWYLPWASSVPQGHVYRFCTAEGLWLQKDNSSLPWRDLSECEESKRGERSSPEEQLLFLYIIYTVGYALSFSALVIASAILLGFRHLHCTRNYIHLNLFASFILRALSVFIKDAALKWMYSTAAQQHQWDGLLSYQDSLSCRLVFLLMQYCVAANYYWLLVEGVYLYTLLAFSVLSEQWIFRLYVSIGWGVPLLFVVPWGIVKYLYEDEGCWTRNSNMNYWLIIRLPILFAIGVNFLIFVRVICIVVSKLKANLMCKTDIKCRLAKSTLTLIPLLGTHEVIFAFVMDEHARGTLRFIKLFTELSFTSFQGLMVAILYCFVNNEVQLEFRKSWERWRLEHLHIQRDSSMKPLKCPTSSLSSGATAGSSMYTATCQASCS

Compound | EC50 [nM]
Cc1cc(-n2nc3c(c2-n2ccn(-c4ccc(C#N)c(C)c4F)c2=O)[C@H](C)N(C(=O)c2cc4cc(C5CCOC(C)(C)C5)ccc4n2[C@@]2(c4nc(=O)o[nH]4)C[C@@H]2C)CC3)cc(C)c1F (some centres unmarked) [Compound 96] | 7.37
Cc1cc(-n2nc3c(c2-n2ccn(-c4ccc(N(C)C5CC5)c(F)c4)c2=O)[C@H](C)N(C(=O)c2cc4cc(C5CCOC(C)(C)C5)ccc4n2[C@@]2(c4noc(=O)[nH]4)C[C@@H]2C)CC3)cc(C)c1F (some centres unmarked) [Compound 68] | 18
Cc1cc(-n2nc3c(c2-n2ccn(-c4ccc(C(=O)N(C)C5CC5)c(OC(F)(F)F)c4)c2=O)[C@H](C)N(C(=O)c2cc4cc([C@H]5CCOC(C)(C)C5)ccc4n2[C@@]2(c4nc(=O)o[nH]4)C[C@@H]2C)CC3)cc(C)c1F [Compound 12] | 9.58
Cc1cc(-n2nc3c(c2-n2ccn(-c4cc5c(cc4F)S(=O)(=O)CC5)c2=O)[C@H](C)N(C(=O)c2cc4cc(C5CCOC(C)(C)C5)ccc4n2[C@@]2(c4nc(=O)o[nH]4)C[C@@H]2C)CC3)cc(C)c1F (some centres unmarked) [Compound 61] | 10.8
Cc1cc(-n2nc3c(c2-n2ccn(-c4ccc(N(C)C5CC5)cc4C(F)(F)F)c2=O)[C@H](C)N(C(=O)c2cc4cc(C5CCOC(C)(C)C5)ccc4n2[C@@]2(c4nc(=O)o[nH]4)C[C@@H]2C)CC3)cc(C)c1F (some centres unmarked) [Compound 65] | 648
C[C@H]1c2c(nn(-c3ccc(F)c(N4CCCC4)c3)c2-n2ccn(-c3ccc4c(cnn4C)c3F)c2=O)CCN1C(=O)c1cc2cc(C3CCOC(C)(C)C3)ccc2n1[C@@]1(c2nc(=O)o[nH]2)C[C@@H]1C (some centres unmarked) [Compound 3] | 26.5
Cc1cc(-n2nc3c(c2-n2ccn(-c4ccc(C(=O)N(C)C5(C)CC5)c(OC(F)(F)F)c4)c2=O)[C@H](C)N(C(=O)c2cc4cc(C5CCOC(C)(C)C5)ccc4n2[C@@]2(c4nc(=O)o[nH]4)C[C@@H]2C)CC3)cc(C)c1F (some centres unmarked) [Compound 34] | 7.44
Cc1cc(-n2nc3c(c2-n2ccn(-c4ccc(N(C)C5CC5)c(Cl)c4)c2=O)[C@H](C)N(C(=O)c2cc4cc([C@@H]5CCOC(C)(C)C5)ccc4n2[C@@]2(c4noc(=O)[nH]4)C[C@@H]2C)CC3)cc(C)c1F [Compound 67a] | 51.4
Cc1cc(-n2nc3c(c2-n2ccn(-c4ccc(C#N)c(F)c4)c2=O)[C@H](C)N(C(=O)c2cc4cc([C@@H]5CCOC(C)(C)C5)ccc4n2[C@@]2(c4nc(=O)o[nH]4)C[C@@H]2C)CC3)cc(C)c1F [Compound 82a] | 459
Cc1cc(-n2nc3c(c2-n2ccn(-c4ccc(C(=O)N(C)C5CC5)c(C#N)c4)c2=O)[C@H](C)N(C(=O)c2cc4cc([C@H]5CCOC(C)(C)C5)ccc4n2[C@@]2(c4nc(=O)o[nH]4)C[C@@H]2C)CC3)cc(C)c1F [Compound 9] | 4.85
Cc1cc(-n2nc3c(c2-n2ccn(-c4ccc5c(c4)CCS5(=O)=O)c2=O)[C@H](C)N(C(=O)c2cc4cc([C@@H]5CCOC(C)(C)C5)ccc4n2[C@@]2(c4nc(=O)o[nH]4)C[C@@H]2C)CC3)cc(C)c1F [Compound 56a] | 241
Cc1cc(-n2nc3c(c2-n2ccn(-c4ccc(N(C)C5CC5)c(OC(F)(F)F)c4)c2=O)[C@H](C)N(C(=O)c2cc4cc(C5CCOC(C)(C)C5)ccc4n2[C@@]2(c4noc(=O)[nH]4)C[C@@H]2C)CC3)cc(C)c1F (some centres unmarked) [Compound 66] | 67.8
Cc1cc(-n2nc3c(c2-n2ccn(-c4ccc(N(C)C(=O)C5CC5)c(F)c4)c2=O)[C@H](C)N(C(=O)c2cc4cc(C5CCOC(C)(C)C5)ccc4n2[C@@]2(c4noc(=O)[nH]4)C[C@@H]2C)CC3)cc(C)c1F (some centres unmarked) [Compound 63] | 8.69
Cc1cc(-n2nc3c(c2-n2ccn(-c4ccc(N(C)C(=O)C5(C(F)(F)F)CC5)cc4)c2=O)[C@H](C)N(C(=O)c2cc4cc(C5CCOC(C)(C)C5)ccc4n2[C@@]2(c4noc(=O)[nH]4)C[C@@H]2C)CC3)cc(C)c1F (some centres unmarked) [Compound 69] | 10.3
Cc1cc(-n2nc3c(c2-n2ccn(-c4cc(F)c(C(=O)N(C)C5CC5)c(Cl)c4F)c2=O)[C@H](C)N(C(=O)c2cc4cc(C5CCOC(C)(C)C5)ccc4n2[C@@]2(c4nc(=O)o[nH]4)C[C@@H]2C)CC3)cc(C)c1F (some centres unmarked) [Compound 19] | 16.2
Cc1cc(-n2nc3c(c2-n2ccn(-c4ccc(C#N)cc4F)c2=O)[C@H](C)N(C(=O)c2cc4cc([C@@H]5CCOC(C)(C)C5)ccc4n2[C@@]2(c4nc(=O)o[nH]4)C[C@@H]2C)CC3)cc(C)c1F [Compound 81a] | 387

Compound | EC50 [nM]
Cc1cc(-n2nc3c(c2-n2ccn(-c4ccc(N(C)C(=O)C5CC5)c(Cl)c4)c2=O)[C@H](C)N(C(=O)c2cc4cc([C@H]5CCOC(C)(C)C5)ccc4n2[C@@]2(c4noc(=O)[nH]4)C[C@@H]2C)CC3)cc(C)c1F [Compound 70] | 3.55
Cc1cc(-n2nc3c(c2-n2ccn(-c4cccc(C(=O)NC5CC5)c4)c2=O)[C@H](C)N(C(=O)c2cc4cc(C5CCOC(C)(C)C5)ccc4n2[C@@]2(c4nc(=O)o[nH]4)C[C@@H]2C)CC3)cc(C)c1F (some centres unmarked) [Compound 47] | 65.1
Cc1cc(-n2nc3c(c2-n2ccn(-c4ccc5c(c4)CCS5(=O)=O)c2=O)[C@H](C)N(C(=O)c2cc4cc([C@H]5CCOC(C)(C)C5)ccc4n2[C@@]2(c4nc(=O)o[nH]4)C[C@@H]2C)CC3)cc(C)c1F [Compound 56b] | 5.59
Cc1cc(-n2nc3c(c2-n2ccn(-c4ccc(C(=O)N(C)C5CC5)nc4)c2=O)[C@H](C)N(C(=O)c2cc4cc(C5CCOC(C)(C)C5)ccc4n2[C@@]2(c4nc(=O)o[nH]4)C[C@@H]2C)CC3)cc(C)c1F (some centres unmarked) [Compound 24] | 54.2
Cc1cc(-n2nc3c(c2-n2ccn(-c4ccc5c(c4F)CCS5(=O)=O)c2=O)[C@H](C)N(C(=O)c2cc4cc(C5CCOC(C)(C)C5)ccc4n2[C@@]2(c4nc(=O)o[nH]4)C[C@@H]2C)CC3)cc(C)c1F (some centres unmarked) [Compound 60] | 10.6
Cc1cc(-n2nc3c(c2-n2ccn(-c4ccc(C(=O)N(C)C5(C)CC5)c(F)c4)c2=O)[C@H](C)N(C(=O)c2cc4cc(C5CCOC(C)(C)C5)ccc4n2[C@@]2(c4nc(=O)o[nH]4)C[C@@H]2C)CC3)cc(C)c1F (some centres unmarked) [Compound 51] | 8.76
C[C@H]1c2c(nn(-c3ccc(F)c(C4CC4)c3)c2-n2ccn(-c3ccc4c(cnn4C)c3F)c2=O)CCN1C(=O)c1cc2cc([C@@H]3CCOC(C)(C)C3)ccc2n1[C@@]1(c2nc(=O)o[nH]2)C[C@@H]1C [Compound 1a] | 35.5
Cc1cc(-n2nc3c(c2-n2ccn(-c4ccc(C(=O)N(C)C5CC5)c(OCC5CC5)c4)c2=O)[C@H](C)N(C(=O)c2cc4cc(C5CCOC(C)(C)C5)ccc4n2[C@@]2(c4nc(=O)o[nH]4)C[C@@H]2C)CC3)cc(C)c1F (some centres unmarked) [Compound 43] | 13.2
Cc1cc(-n2nc3c(c2-n2ccn(-c4ccc(C#N)c(Cl)c4F)c2=O)[C@H](C)N(C(=O)c2cc4cc(C5CCOC(C)(C)C5)ccc4n2[C@@]2(c4nc(=O)o[nH]4)C[C@@H]2C)CC3)cc(C)c1F (some centres unmarked) [Compound 97] | 7.84
C[C@H]1c2c(nn(-c3ccc(F)c(OC(F)(F)F)c3)c2-n2ccn(-c3ccc4c(cnn4C)c3F)c2=O)CCN1C(=O)c1cc2cc(C3CCOC(C)(C)C3)ccc2n1[C@@]1(c2nc(=O)o[nH]2)C[C@@H]1C (some centres unmarked) [Compound 4] | 34.3
Cc1cc(-n2nc3c(c2-n2ccn(-c4ccc(C#N)c(F)c4)c2=O)[C@H](C)N(C(=O)c2cc4cc([C@H]5CCOC(C)(C)C5)ccc4n2[C@@]2(c4nc(=O)o[nH]4)C[C@@H]2C)CC3)cc(C)c1F [Compound 82b] | 6.4
Cc1cc(-n2nc3c(c2-n2ccn(-c4ccc(N(C)C5CC5)c(C(F)(F)F)c4)c2=O)[C@H](C)N(C(=O)c2cc4cc(C5CCOC(C)(C)C5)ccc4n2[C@@]2(c4nc(=O)o[nH]4)C[C@@H]2C)CC3)cc(C)c1F (some centres unmarked) [Compound 64] | 29
Cc1cc(-n2nc3c(c2-n2ccn(-c4cc(F)c(C(=O)N(C)C5CC5)c(F)c4)c2=O)[C@H](C)N(C(=O)c2cc4cc(C5CCOC(C)(C)C5)ccc4n2[C@@]2(c4nc(=O)o[nH]4)C[C@@H]2C)CC3)cc(C)c1F (some centres unmarked) [Compound 52] | 11
Cc1cc(-n2nc3c(c2-n2ccn(-c4ccc(N(C)C(=O)C5CC5)cc4Cl)c2=O)[C@H](C)N(C(=O)c2cc4cc([C@H]5CCOC(C)(C)C5)ccc4n2[C@@]2(c4nc(=O)o[nH]4)C[C@@H]2C)CC3)cc(C)c1F [Compound 77] | 6.19
Cc1cc(-n2nc3c(c2-n2ccn(-c4ccc(C(=O)N(C)C5(C)CC5)c(C(F)(F)F)c4)c2=O)[C@H](C)N(C(=O)c2cc4cc([C@H]5CCOC(C)(C)C5)ccc4n2[C@@]2(c4nc(=O)o[nH]4)C[C@@H]2C)CC3)cc(C)c1F [Compound 15] | 7.27
Cc1cc(-n2nc3c(c2-n2ccn(-c4ccc(C(=O)N(C)C5(C#N)CC5)c(F)c4)c2=O)[C@H](C)N(C(=O)c2cc4cc(C5CCOC(C)(C)C5)ccc4n2[C@@]2(c4nc(=O)o[nH]4)C[C@@H]2C)CC3)cc(C)c1F (some centres unmarked) [Compound 23] | 13.8
